According to ChEMBL document CHEMBL1153182, “Novel enoyl-ACP reductase (FabI) potential inhibitors of Escherichia coli from Chinese medicine monomers” (Bioorg Med Chem Lett, 2010):
In brackets after ≈: the same amount, converted by molar mass. Activity calls are given as the source filed them. The rule behind the calls is not given here.

Columns and labels:
Escherichia coli [1] = experiment: Antibacterial activity against Escherichia coli MG1655; type: functional
Escherichia coli [2] = experiment: Antibacterial activity against Escherichia coli M15 containing pQE30 expression vector; type: functional
Escherichia coli [3] = experiment: Antibacterial activity against Escherichia coli M15; type: functional
Escherichia coli [4] = experiment: Antibacterial activity against fabI-overexpressing Escherichia coli M15; type: functional
[5] = target: T1, Enoyl-[acyl-carrier-protein] reductase [NADH] FabI (Escherichia coli K-12, UniProt P0AEK4); experiment: Inhibition of Escherichia coli MG1655 enoyl-ACP reductase overexpressed in Escherichia coli M15 assessed as oxidation of NADH to NAD+ after 5 mins
T1 sequence (P0AEK4 whole entry): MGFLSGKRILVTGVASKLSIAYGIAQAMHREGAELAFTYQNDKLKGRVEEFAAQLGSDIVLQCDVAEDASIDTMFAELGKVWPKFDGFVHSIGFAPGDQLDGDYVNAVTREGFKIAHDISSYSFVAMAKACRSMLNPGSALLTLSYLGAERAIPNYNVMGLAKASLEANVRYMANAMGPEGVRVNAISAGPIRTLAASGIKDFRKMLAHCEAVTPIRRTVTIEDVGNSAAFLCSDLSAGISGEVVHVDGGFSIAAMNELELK

[6] = target: T2, Enoyl-[acyl-carrier-protein] reductase [NADH] FabI (Escherichia coli K-12) (UniProt P0AEK4); experiment: Uncompetitive inhibition of Escherichia coli MG1655 enoyl-ACP reductase overexpressed in Escherichia coli M15 assessed as oxidation of NADH to NAD+ after 5 mins by Lineweaver-Burke plot
T2 sequence (whole entry): T1 sequence (P0AEK4 whole entry)

Escherichia coli [7] = experiment: Ratio of MIC90 for fabI-overexpressing Escherichia coli M15 to MIC90 for Escherichia coli M15 containing pQE30 expression vector; type: functional
Escherichia coli [8] = experiment: Ratio of MIC90 for fabI-overexpressing Escherichia coli M15 to MIC90 for Escherichia coli M15; type: functional
[9] = target: T2, Enoyl-[acyl-carrier-protein] reductase [NADH] FabI (Escherichia coli K-12); experiment: Inhibition of Escherichia coli MG1655 enoyl-ACP reductase overexpressed in Escherichia coli M15 assessed as oxidation of NADH to NAD+ at 5 uM after 5 mins

CO[C@H]1/C=C/O[C@@]2(C)Oc3c(C)c(O)c4c(O)c(c(/C=N/N5CCN(C)CC5)c(O)c4c3C2=O)NC(=O)/C(C)=C\C=C\[C@H](C)[C@H](O)[C@@H](C)[C@@H](O)[C@@H](C)[C@H](OC(C)=O)[C@@H]1C [RIFAMPIN]
MIC90 (Escherichia coli [1]): 128 µg/mL (≈ 156 µM) | MIC90 (Escherichia coli [2]): 128 µg/mL (≈ 156 µM) | MIC90 (Escherichia coli [3]): 128 µg/mL (≈ 156 µM) | MIC90 (Escherichia coli [4]): 128 µg/mL (≈ 156 µM)

GENTAMICIN
MIC90 (Escherichia coli [1]): 8 µg/mL | MIC90 (Escherichia coli [2]): 8 µg/mL | MIC90 (Escherichia coli [3]): 8 µg/mL | MIC90 (Escherichia coli [4]): 8 µg/mL

O=c1cc(-c2ccc(O)c(O)c2)oc2cc(O)cc(O)c12 [LUTEOLIN]
Ki [5]: 7.05 µM | Activity [6]: Active

O=C(N[C@H](CO)[C@H](O)c1ccc([N+](=O)[O-])cc1)C(Cl)Cl [CHLORAMPHENICOL]
MIC90 (Escherichia coli [1]): 8 µg/mL (≈ 24.8 µM) | MIC90 (Escherichia coli [2]): 8 µg/mL (≈ 24.8 µM) | MIC90 (Escherichia coli [3]): 8 µg/mL (≈ 24.8 µM) | MIC90 (Escherichia coli [4]): 8 µg/mL (≈ 24.8 µM)

COc1cc(/C=C/C(=O)CC(=O)/C=C/c2ccc(O)c(OC)c2)ccc1O [CURCUMIN]
Ratio (Escherichia coli [7]): 7 | MIC90 (Escherichia coli [1]): 73.7 µg/mL (≈ 200 µM) | Ki [5]: 15 µM | Activity [6]: Active | MIC90 (Escherichia coli [2]): 73.7 µg/mL (≈ 200 µM) | Ratio (Escherichia coli [8]): 7 | MIC90 (Escherichia coli [3]): 73.7 µg/mL (≈ 200 µM) | MIC90 (Escherichia coli [4]): > 500 µg/mL

CC[C@H]1OC(=O)[C@H](C)[C@@H](O[C@H]2C[C@@](C)(OC)[C@@H](O)[C@H](C)O2)[C@H](C)[C@@H](O[C@@H]2O[C@H](C)C[C@H](N(C)C)[C@H]2O)[C@](C)(O)C[C@@H](C)C(=O)[C@H](C)[C@@H](O)[C@]1(C)O [ERYTHROMYCIN]
MIC90 (Escherichia coli [1]): 16 µg/mL (≈ 21.8 µM) | MIC90 (Escherichia coli [2]): 16 µg/mL (≈ 21.8 µM) | MIC90 (Escherichia coli [3]): 16 µg/mL (≈ 21.8 µM) | MIC90 (Escherichia coli [4]): 16 µg/mL (≈ 21.8 µM)

Oc1cc(Cl)ccc1Oc1ccc(Cl)cc1Cl [TRICLOSAN]
MIC90 (Escherichia coli [1]): 2.9 µg/mL (≈ 10 µM) | MIC90 (Escherichia coli [2]): 2.9 µg/mL (≈ 10 µM) | MIC90 (Escherichia coli [3]): 2.9 µg/mL (≈ 10 µM) | MIC90 (Escherichia coli [4]): > 500 µg/mL

CC(C)=CCOc1c2occc2cc2ccc(=O)oc12
Activity [9]: Active

O=c1c(-c2ccc(O)cc2)coc2cc(O)cc(O)c12 [GENISTEIN]
MIC90 (Escherichia coli [1]): 378 µg/mL (≈ 1400 µM) | MIC90 (Escherichia coli [2]): 378 µg/mL (≈ 1400 µM) | MIC90 (Escherichia coli [3]): 378 µg/mL (≈ 1400 µM) | MIC90 (Escherichia coli [4]): > 500 µg/mL | Activity [9]: Active

OC[C@H]1O[C@@H](Oc2cc(O)cc(/C=C/c3ccc(O)cc3)c2)[C@H](O)[C@@H](O)[C@@H]1O
Activity [9]: Active

CN[C@@H]1[C@H](O)[C@H](NC)[C@H]2O[C@@]3(O)C(=O)C[C@@H](C)O[C@H]3O[C@@H]2[C@H]1O [SPECTINOMYCIN]
MIC90 (Escherichia coli [1]): 20 µg/mL (≈ 60.2 µM) | MIC90 (Escherichia coli [2]): 20 µg/mL (≈ 60.2 µM) | MIC90 (Escherichia coli [3]): 20 µg/mL (≈ 60.2 µM) | MIC90 (Escherichia coli [4]): 20 µg/mL (≈ 60.2 µM)
